Data taken from PMC11693508, “Pharmacokinetics, bioavailability, and tissue distribution of MRTX1133 in rats using UHPLC-MS/MS” (Frontiers in Pharmacology, 2024).

Test: Stability of MRTX1133 in rat plasma and tissue homogenates under different storage conditions
Type: physicochemical
Conditions: for Post-processing stability Accuracy / Short-term stability Accuracy / −80°C for 14 days Accuracy / Freeze-thaw stability Accuracy: n = 6; for −80°C for 14 days Accuracy: long-term; for Freeze-thaw stability Accuracy: three freeze-thaw cycles −20°C to 25°C
Description: The stability of MRTX1133 was determined by analyzing LQ, MQ, and HQ samples under different storage conditions, which included three freeze-thaw stability (from −20°C to 25°C), long-term stability (−80°C for 14 days), short-term stability (25°C for 6 h), and post-processing stability (4°C for 24 h). The samples concentrations were compared with the freshly prepared QC samples and were considered stable if the accuracy were 85%–115% and RSD were ±15%.

[1] = rat intestine homogenate, 4.22 ng/mL
[2] = rat intestine homogenate, 21.12 ng/mL
[3] = rat kidney homogenate, 21.12 ng/mL
[4] = rat kidney homogenate, 211.20 ng/mL
[5] = rat kidney homogenate, 1,056.00 ng/mL
[6] = rat liver homogenate, 21.12 ng/mL
[7] = rat liver homogenate, 211.20 ng/mL
[8] = rat liver homogenate, 2,112.00 ng/mL

C#Cc1c(F)ccc2cc(O)cc(-c3ncc4c(N5CC6CCC(C5)N6)nc(OC[C@@]56CCCN5C[C@H](F)C6)nc4c3F)c12 [MRTX1133]
stability in plasma samples and homogenates (25°C for 6 h, 4°C for 24 h, three freeze-thaw cycles (−20°C to 25°C), −80°C for 14 days): stable
Post-processing stability Accuracy (rat intestine homogenate, 4.22 ng/mL, 4°C for 24 h): 98.23%
Short-term stability Accuracy (rat intestine homogenate, 4.22 ng/mL, 25°C for 6 h): 95.41%
−80°C for 14 days Accuracy [1]: 93.31%
Freeze-thaw stability Accuracy [1]: 95.83%
Post-processing stability Accuracy (rat intestine homogenate, 21.12 ng/mL, 4°C for 24 h): 98.14%
Short-term stability Accuracy (rat intestine homogenate, 21.12 ng/mL, 25°C for 6 h): 96.69%
−80°C for 14 days Accuracy [2]: 92.54%
Freeze-thaw stability Accuracy [2]: 94.42%
Short-term stability Accuracy (rat intestine homogenate, 105.60 ng/mL, 25°C for 6 h): 94.97%
−80°C for 14 days Accuracy (rat intestine homogenate, 105.60 ng/mL): 90.35%
Post-processing stability Accuracy (rat kidney homogenate, 21.12 ng/mL, 4°C for 24 h): 101.18%
Short-term stability Accuracy (rat kidney homogenate, 21.12 ng/mL, 25°C for 6 h): 103.01%
−80°C for 14 days Accuracy [3]: 95.23%
Freeze-thaw stability Accuracy [3]: 95.07%
Post-processing stability Accuracy (rat kidney homogenate, 211.20 ng/mL, 4°C for 24 h): 98.13%
Short-term stability Accuracy (rat kidney homogenate, 211.20 ng/mL, 25°C for 6 h): 97.29%
−80°C for 14 days Accuracy [4]: 92.7%
Freeze-thaw stability Accuracy [4]: 95.58%
Post-processing stability Accuracy (rat kidney homogenate, 1,056.00 ng/mL, 4°C for 24 h): 95.47%
Short-term stability Accuracy (rat kidney homogenate, 1,056.00 ng/mL, 25°C for 6 h): 97.04%
−80°C for 14 days Accuracy [5]: 91.34%
Freeze-thaw stability Accuracy [5]: 93.72%
Post-processing stability Accuracy (rat liver homogenate, 21.12 ng/mL, 4°C for 24 h): 104.23%
Short-term stability Accuracy (rat liver homogenate, 21.12 ng/mL, 25°C for 6 h): 101.44%
−80°C for 14 days Accuracy [6]: 96.4%
Freeze-thaw stability Accuracy [6]: 97.72%
Post-processing stability Accuracy (rat liver homogenate, 211.20 ng/mL, 4°C for 24 h): 105.35%
Short-term stability Accuracy (rat liver homogenate, 211.20 ng/mL, 25°C for 6 h): 105.89%
−80°C for 14 days Accuracy [7]: 94.88%
Freeze-thaw stability Accuracy [7]: 96.69%
Post-processing stability Accuracy (rat liver homogenate, 2,112.00 ng/mL, 4°C for 24 h): 97.47%
Short-term stability Accuracy (rat liver homogenate, 2,112.00 ng/mL, 25°C for 6 h): 98.17%
−80°C for 14 days Accuracy [8]: 93.33%
Freeze-thaw stability Accuracy [8]: 92.38%
Post-processing stability Accuracy (rat plasma, 4.22 ng/mL, 4°C for 24 h): 107.16%
Short-term stability Accuracy (rat plasma, 4.22 ng/mL, 25°C for 6 h): 108.92%
−80°C for 14 days Accuracy (rat plasma, 4.22 ng/mL): 103.66%
Freeze-thaw stability Accuracy (rat plasma, 4.22 ng/mL): 101.64%
Post-processing stability Accuracy (rat plasma, 105.60 ng/mL, 4°C for 24 h): 94.98%
Short-term stability Accuracy (rat plasma, 105.60 ng/mL, 25°C for 6 h): 95.35%
−80°C for 14 days Accuracy (rat plasma, 105.60 ng/mL): 90.18%
Freeze-thaw stability Accuracy (rat plasma, 105.60 ng/mL): 92.05%
Post-processing stability Accuracy (rat plasma, 1,056.00 ng/mL, 4°C for 24 h): 92.05%
Short-term stability Accuracy (rat plasma, 1,056.00 ng/mL, 25°C for 6 h): 92.49%
−80°C for 14 days Accuracy (rat plasma, 1,056.00 ng/mL): 90.23%
Freeze-thaw stability Accuracy (rat plasma, 1,056.00 ng/mL): 90.04%
